The values below come from ChEMBL document CHEMBL5537173, “Emerging Drug Targets for Antimalarial Drug Discovery: Validation and Insights into Molecular Mechanisms of Function” (J Med Chem, 2024).

The target in one assay is Plasmepsin V (Plasmodium vivax, UniProt A0A0H4FQ60). Kind of assay: Inhibition of recombinant Plasmodium vivax Plasmepsin V.
A short description of assay [1]: Inhibition of Plasmodium falciparum 3D7 EF2.
Assay [2] has as its target cGMP-dependent protein kinase (Plasmodium falciparum, UniProt W7JX98). The assay can be described thus: Inhibition of Plasmodium falciparum NF54 PKG.

SMILES strings stand for the structures.

Sequence of Plasmepsin V (A0A0H4FQ60 whole entry): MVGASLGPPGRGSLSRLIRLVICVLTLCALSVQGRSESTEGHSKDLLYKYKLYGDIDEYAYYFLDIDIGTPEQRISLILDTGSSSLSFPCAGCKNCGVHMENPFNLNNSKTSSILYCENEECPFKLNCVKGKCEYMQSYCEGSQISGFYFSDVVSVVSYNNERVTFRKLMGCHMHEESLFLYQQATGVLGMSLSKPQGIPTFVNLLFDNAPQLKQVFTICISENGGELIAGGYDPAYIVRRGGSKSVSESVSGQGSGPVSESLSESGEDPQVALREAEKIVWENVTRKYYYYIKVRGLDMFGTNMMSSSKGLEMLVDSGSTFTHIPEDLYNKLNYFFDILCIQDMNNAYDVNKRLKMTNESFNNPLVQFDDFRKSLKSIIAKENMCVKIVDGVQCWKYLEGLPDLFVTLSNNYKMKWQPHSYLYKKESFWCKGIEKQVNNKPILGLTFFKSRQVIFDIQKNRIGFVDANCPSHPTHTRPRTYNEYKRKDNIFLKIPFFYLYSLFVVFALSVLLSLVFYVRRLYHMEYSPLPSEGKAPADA
Sequence of cGMP-dependent protein kinase (W7JX98 whole entry): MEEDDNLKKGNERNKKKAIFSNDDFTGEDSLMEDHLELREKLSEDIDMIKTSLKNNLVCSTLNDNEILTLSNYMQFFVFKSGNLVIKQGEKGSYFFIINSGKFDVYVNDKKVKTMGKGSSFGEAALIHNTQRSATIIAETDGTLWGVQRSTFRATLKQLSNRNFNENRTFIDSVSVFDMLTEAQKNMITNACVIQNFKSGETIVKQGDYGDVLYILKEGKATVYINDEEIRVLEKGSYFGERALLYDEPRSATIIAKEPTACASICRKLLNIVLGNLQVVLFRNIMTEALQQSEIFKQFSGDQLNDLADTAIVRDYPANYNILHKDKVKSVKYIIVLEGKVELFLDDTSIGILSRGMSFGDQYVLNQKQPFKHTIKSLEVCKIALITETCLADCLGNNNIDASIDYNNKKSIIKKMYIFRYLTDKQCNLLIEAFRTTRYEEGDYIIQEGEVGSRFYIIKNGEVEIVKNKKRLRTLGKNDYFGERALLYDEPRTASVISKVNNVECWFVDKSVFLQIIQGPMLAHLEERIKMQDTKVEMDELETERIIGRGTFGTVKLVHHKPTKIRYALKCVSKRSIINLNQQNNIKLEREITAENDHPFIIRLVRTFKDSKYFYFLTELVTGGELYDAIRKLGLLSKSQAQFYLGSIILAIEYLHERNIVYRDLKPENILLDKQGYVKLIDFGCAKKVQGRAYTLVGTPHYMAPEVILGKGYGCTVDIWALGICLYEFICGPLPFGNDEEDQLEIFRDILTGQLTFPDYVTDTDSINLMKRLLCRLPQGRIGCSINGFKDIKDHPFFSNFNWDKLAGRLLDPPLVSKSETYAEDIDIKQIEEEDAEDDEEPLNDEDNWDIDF

As for `CC(C)C[C@H](NC(=O)[C@@H](NC(=O)[C@H](CCONC(=N)N)NC(=O)OCc1ccccc1)C(C)C)[C@@H](O)CC(=O)NCCc1ccccc1`, the IC50 – broadly, the concentration that gives 50% inhibition – on Plasmepsin V was found to be 0.2 nM. As to `O=C(NCCN1CCCC1)c1cc(-c2ccc(CN3CCOCC3)cc2)nc2ccc(F)cc12` [CABAMIQUINE], in assay [1], half-maximal inhibition (IC50) required 2 nM. Consider `CN(C)Cc1ccn2c(-c3ccnc(NCC4CC4)n3)c(-c3ccc(F)c(NS(C)(=O)=O)c3)nc2c1`, for which it took 0.16 nM to reach half-maximal inhibition in assay [2] (IC50).
